Results reported in patent US20230190887A1, “TARGETING G3BP AGGREGATION TO PREVENT NEURODEGENERATION” (priority 2019, published 2023).

What was measured:
Type in all cases: cell-based, rat
[1] = system: G3BP1 aggregates in midbrain neurons; assay: Endogenous G3BP1 aggregates in MPP+-treated midbrain neurons; details: MPP+ plus peptide
Text: (§1) Given that the G3BP1 190-208 peptide prevents degeneration induced by treatment with neurotoxins such as MPP+ and Aβ oligomer and decreases G3BP1 aggregates formed due MPP+ and Aβ treatment.
(§2) (A) Size of endogenous G3BP1 aggregates per 100 μm of neurite is shown as indicated bins from midbrain cultures under control conditions and after treatment with MPP+alone or with 190-208 G3BP1 or 168-189 peptides. (B) Size distribution of endogenous G3BP1 aggregates per 100 μm of neurite is shown from cortical neurons treated with 1 μM Aβpeptide or with […] 190-208 G3BP1 or 168-189 control peptide. Non-treated neurons were used as a control. […] (N≥90 over 3 cultures; by two-way ANOVA with Tukey HSD post-hoc).

DRG neurons = assay: Axon growth in dissociated DRG cultures
Method: Cell culture. For primary neuronal cultures, L4-5 DRG were harvested in Hybernate-A medium (BrainBits) and then dissociated as described. After centrifugation and washing in DMEM/F12 (Life Technologies), cells were resuspended in DMEM/F12, 1×N1 supplement (Sigma), 10% fetal bovine serum (Hyclone), and 10 μM cytosine arabinoside (Sigma). Dissociated DRGs were plated immediately on laminin/poly-L-lysine-coated coverslips or transfected (see below) and then plated on coated coverslips.
[…] Neurite outgrowth was assessed 24 h after addition of peptides. For the cortical cultures, 10 μM peptide was applied to the axonal compartment at 3 d in vitro (DIV) and axonal growth was assessed at 6 DIV. For iMotor neurons, 20 μM peptides were immediately added and neurite growth was assessed 24 h later.
For neurite outgrowth, images from 60 h DRG cultures were analyzed for neurite outgrowth using WIS-Neuromath. Axon morphology was visualized using GFP and/or NF immunofluorescence as described. Differentiated hiPSC neuron image acquisition and neurite length quantification was performed using Arrayscan XTI (Thermo Fisher).

[2] = system: G3BP1 aggregates in cortical neurons; assay: Endogenous G3BP1 aggregates in Aβ-treated cortical neurons; details: Aβ oligomers plus peptide
Text: as §1, §2

[3] = listed as 190-208 G3BP1 peptide
[4] = 10 μM Tat-fused peptide added to DRG cultures immediately after plating

## YGNKKNNNQNNN-VVEPEPEPEPEPEPEPVSE [G3BP1 190-208 peptide]
[1]
  size of endogenous G3BP1 aggregates per 100 μm of neurite: decrease in the size of G3BP1 aggregates
[1]; [3]
  size of endogenous G3BP1 aggregates per 100 μm of neurite: disassembly of G3BP1 granules
DRG neurons; [4]
  axon length: increased axon length
  number of neurites per neuron: increased the number of neurites per neuron
DRG neurons; delayed application (peptide added at 12 h, assessed at 36 h), naive and preinjured DRG neurons
  axon length: significantly increased axon length
[2]
  size of endogenous G3BP1 aggregates per 100 μm of neurite: decrease in the size of G3BP1 aggregates
[2]; [3]
  size of endogenous G3BP1 aggregates per 100 μm of neurite: disassembly of G3BP1 granules
